According to patent publication US12371428B2 (Exelixis, Inc., priority 2019, dated 2025):
Counter-ions that a name gives are not always drawn.

Assays:
[1] = biological target: Met (phospho-Met, HGF-stimulated PC-3 prostate cancer cells) (Homo sapiens (Human), UniProt P08581); assay: Met autophosphorylation ELISA in PC-3 cells (Example F); type: cell-based; conditions: cellular activity; Met autophosphorylation ELISA in PC-3 cells; read-out: c-Met IC50
Outline: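 Compounds were tested on HGF-stimulated PC-3 cells. After 24 h culture and 3 h serum starvation, cells got compound for 1 h and 100 ng/mL HGF for 10 min, and Met tyrosine phosphorylation was measured by ELISA.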

[2] = biological target: Mer (phospho-Mer, MERTK-transfected 293A cells) (Homo sapiens (Human), UniProt Q12866); assay: Mer autophosphorylation ELISA in transient transfected 293A cells (Example H); type: cell-based; conditions: cellular activity; Mer autophosphorylation ELISA in transient transfected 293A cells
Outline: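 MERTK-transfected 293A; 8-pt dose, 1 h, serum-free, 0.3% DMSO. Cold lysis with orthovanadate and protease/phosphatase inhibitors. Phospho-Mer by DuoSet IC ELISA vs phospho-Mer standard. IC50: 4-PL fit; DMSO = 100%, reference inhibitor = 0%.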

[3] = biological target: Human KDR (residues 790-1356) (Homo sapiens (Human), UniProt P35968); assay: Human KDR kinase assay, HTRF KinEase (Example B-2); type: biochemical; conditions: protocol of Example B-2 (other compounds)
Outline: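 Ten compound concentrations (3% DMSO final) were pre-plated, then KDR (790-1356) with biotinylated peptide in Mg/Mn/DTT buffer was added; ATP at Km (4.0 μM) started a 40 min room-temperature reaction. Detection used Eu-TK antibody and SA-XL665 in EDTA buffer; activity normalized to DMSO and reference inhibitor, IC50 by logistic fit.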

Sequence of Human KDR (residues 790-1356) (P35968 790-1356): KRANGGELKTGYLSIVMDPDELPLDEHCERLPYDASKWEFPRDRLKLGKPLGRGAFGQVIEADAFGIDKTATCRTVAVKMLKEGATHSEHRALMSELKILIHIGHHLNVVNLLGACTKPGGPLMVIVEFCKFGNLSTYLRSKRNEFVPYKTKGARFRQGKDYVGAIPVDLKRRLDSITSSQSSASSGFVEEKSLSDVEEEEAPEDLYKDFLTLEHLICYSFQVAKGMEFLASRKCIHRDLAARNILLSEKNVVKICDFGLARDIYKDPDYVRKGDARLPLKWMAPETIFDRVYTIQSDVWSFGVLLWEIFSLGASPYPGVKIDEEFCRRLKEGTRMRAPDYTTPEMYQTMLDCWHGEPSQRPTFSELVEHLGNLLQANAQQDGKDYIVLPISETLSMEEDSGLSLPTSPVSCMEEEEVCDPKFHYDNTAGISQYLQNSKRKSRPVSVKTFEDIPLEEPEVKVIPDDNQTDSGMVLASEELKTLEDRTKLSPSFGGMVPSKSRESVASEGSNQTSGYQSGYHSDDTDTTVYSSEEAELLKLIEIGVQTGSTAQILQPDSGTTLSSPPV
Sequence of Met (phospho-Met, HGF-stimulated PC-3 prostate cancer cells) (P08581 25-1390): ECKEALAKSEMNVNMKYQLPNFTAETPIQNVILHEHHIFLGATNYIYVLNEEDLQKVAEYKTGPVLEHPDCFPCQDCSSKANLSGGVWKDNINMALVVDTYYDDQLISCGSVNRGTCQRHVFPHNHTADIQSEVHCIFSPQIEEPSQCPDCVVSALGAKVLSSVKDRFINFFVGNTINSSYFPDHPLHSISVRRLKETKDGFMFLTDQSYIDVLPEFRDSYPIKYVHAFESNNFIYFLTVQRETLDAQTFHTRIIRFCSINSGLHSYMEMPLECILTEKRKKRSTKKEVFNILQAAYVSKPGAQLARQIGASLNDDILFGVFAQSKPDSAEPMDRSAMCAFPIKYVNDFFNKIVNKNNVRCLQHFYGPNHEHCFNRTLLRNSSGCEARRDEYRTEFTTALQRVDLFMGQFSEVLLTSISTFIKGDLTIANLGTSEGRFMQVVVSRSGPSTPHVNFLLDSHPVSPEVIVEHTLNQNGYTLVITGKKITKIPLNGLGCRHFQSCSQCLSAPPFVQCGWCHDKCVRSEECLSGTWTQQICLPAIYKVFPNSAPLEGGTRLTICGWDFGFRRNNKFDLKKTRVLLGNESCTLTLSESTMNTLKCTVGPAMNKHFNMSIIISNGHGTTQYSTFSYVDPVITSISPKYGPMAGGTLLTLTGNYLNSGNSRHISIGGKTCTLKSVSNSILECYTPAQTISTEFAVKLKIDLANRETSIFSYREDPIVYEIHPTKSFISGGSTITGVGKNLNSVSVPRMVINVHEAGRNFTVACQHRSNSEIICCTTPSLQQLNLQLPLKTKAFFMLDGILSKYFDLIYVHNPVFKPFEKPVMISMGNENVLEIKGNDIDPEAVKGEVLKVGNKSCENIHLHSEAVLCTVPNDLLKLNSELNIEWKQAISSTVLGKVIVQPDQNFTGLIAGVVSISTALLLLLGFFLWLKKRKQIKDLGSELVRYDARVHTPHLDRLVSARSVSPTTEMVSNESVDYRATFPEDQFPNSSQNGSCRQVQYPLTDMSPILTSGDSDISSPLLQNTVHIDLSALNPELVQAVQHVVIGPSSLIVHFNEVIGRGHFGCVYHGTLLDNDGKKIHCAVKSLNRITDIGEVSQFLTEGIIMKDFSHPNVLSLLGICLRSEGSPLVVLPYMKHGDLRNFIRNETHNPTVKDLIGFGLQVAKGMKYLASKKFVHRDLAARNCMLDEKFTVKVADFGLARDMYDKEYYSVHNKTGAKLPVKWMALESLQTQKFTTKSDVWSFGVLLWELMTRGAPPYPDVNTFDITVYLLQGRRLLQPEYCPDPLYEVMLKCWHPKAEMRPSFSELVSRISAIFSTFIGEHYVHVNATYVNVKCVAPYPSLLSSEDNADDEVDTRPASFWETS
Sequence of Mer (phospho-Mer, MERTK-transfected 293A cells) (Q12866 21-999): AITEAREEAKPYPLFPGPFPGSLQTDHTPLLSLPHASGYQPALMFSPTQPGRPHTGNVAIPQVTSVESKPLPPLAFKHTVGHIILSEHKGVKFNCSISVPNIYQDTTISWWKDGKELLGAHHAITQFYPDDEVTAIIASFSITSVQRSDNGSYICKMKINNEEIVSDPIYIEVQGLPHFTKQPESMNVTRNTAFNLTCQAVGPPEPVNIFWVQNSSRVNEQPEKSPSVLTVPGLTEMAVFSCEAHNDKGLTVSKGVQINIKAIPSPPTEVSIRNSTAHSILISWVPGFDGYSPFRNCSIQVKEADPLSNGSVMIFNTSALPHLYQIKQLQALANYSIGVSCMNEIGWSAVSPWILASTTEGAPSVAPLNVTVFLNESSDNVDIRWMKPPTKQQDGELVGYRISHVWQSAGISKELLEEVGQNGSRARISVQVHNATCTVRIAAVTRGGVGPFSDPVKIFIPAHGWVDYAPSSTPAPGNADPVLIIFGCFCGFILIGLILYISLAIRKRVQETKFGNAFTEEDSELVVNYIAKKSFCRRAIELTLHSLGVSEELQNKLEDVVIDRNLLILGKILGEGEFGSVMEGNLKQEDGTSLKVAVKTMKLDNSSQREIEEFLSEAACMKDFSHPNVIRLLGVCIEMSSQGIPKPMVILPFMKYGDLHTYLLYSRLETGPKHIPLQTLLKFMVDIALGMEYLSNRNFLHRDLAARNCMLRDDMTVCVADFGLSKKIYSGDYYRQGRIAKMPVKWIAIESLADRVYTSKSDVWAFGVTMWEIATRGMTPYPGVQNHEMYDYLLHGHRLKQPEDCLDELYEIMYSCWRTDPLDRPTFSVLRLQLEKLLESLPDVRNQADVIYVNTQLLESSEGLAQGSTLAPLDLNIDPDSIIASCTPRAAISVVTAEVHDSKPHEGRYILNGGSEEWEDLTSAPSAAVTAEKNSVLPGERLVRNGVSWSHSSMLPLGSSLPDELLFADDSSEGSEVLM

Structure (SMILES) | IC50 [1] [nM] | IC50 [2] [nM] | IC50 [3] [nM]
CCc1nc(C)c(-c2ccc(F)cc2)c(O)c1C(=O)Nc1ccc(Oc2ccnc3ccc(OC)nc23)c(F)c1 [Compound 182, 2-Ethyl-N-[3-fluoro-4-[(6-methoxy-1,5-naphthyridin-4-yl)oxy]phenyl]-5-(4-fluorophenyl)-4-hydroxy-6-methylpyridine-3-carboxamide] | < 100 | < 100 | 100 to 300
COc1cnc2c(Oc3ccc(NC(=O)c4cnc(C)c(-c5ccc(F)cc5C)c4O)cc3)ccnc2c1 [Compound 176, 5-(4-Fluoro-2-methylphenyl)-4-hydroxy-N-[4-[(7-methoxy-1,5-naphthyridin-4-yl)oxy]phenyl]-6-methylpyridine-3-carboxamide] | < 100 | < 100 | > 300
COCc1nc(C)c(-c2ccc(F)cc2C)c(O)c1C(=O)Nc1ccc(Oc2ccnc3ccc(OC)nc23)c(F)c1 [Compound 195, N-[3-Fluoro-4-[(6-methoxy-1,5-naphthyridin-4-yl)oxy]phenyl]-5-(4-fluoro-2-methylphenyl)-4-hydroxy-2-(methoxymethyl)-6-methylpyridine-3-carboxamide] | < 100 | < 100 | > 300
COc1cnc2c(Oc3ccc(NC(=O)c4cn(C)c(C)c(-c5ccc(F)cc5C)c4=O)cc3F)ccnc2c1 [Compound 181, N-[3-Fluoro-4-[(7-methoxy-1,5-naphthyridin-4-yl)oxy]phenyl]-5-(4-fluoro-2-methylphenyl)-1,6-dimethyl-4-oxopyridine-3-carboxamide] | < 100 | < 100 | > 300
COCc1nc(C)c(-c2ccc(F)cc2)c(O)c1C(=O)Nc1ccc(Oc2ccnc3cc(OC)c(OC)nc23)c(F)c1 [Compound 184, N-[4-[(6,7-Dimethoxy-1,5-naphthyridin-4-yl)oxy]-3-fluorophenyl]-5-(4-fluorophenyl)-4-hydroxy-2-(methoxymethyl)-6-methylpyridine-3-carboxamide] | < 100 | < 100 | < 100
COc1cnc2c(Oc3ccc(NC(=O)c4c(C)nc(C)c(-c5ccc(F)cc5C)c4O)cc3F)ccnc2c1 [Compound 178, N-[3-Fluoro-4-[(7-methoxy-1,5-naphthyridin-4-yl)oxy]phenyl]-5-(4-fluoro-2-methylphenyl)-4-hydroxy-2,6-dimethylpyridine-3-carboxamide] | < 100 | < 100 | < 100
COc1cnc2c(Oc3ccc(NC(=O)c4ccc(C)n(-c5ccc(F)cc5C)c4=O)cc3)ccnc2c1 [Compound 226, 1-(4-Fluoro-2-methylphenyl)-N-[4-[(7-methoxy-1,5-naphthyridin-4-yl)oxy]phenyl]-6-methyl-2-oxopyridine-3-carboxamide] | < 100 | < 100 | 100 to 300
COc1cnc2c(Oc3ccc(NC(=O)c4c(C)nc(C)n(-c5ccc(F)cc5)c4=O)cc3)ccnc2c1 [Compound 258, 1-(4-Fluorophenyl)-N-[4-[(7-methoxy-1,5-naphthyridin-4-yl)oxy]phenyl]-2,4-dimethyl-6-oxopyrimidine-5-carboxamide] | < 100 | < 100 | < 100
COc1cnc2c(Oc3ccc(NC(=O)c4cnc(C(F)(F)F)c(-c5ccc(F)cc5)c4O)cc3F)ccnc2c1 [Compound 241, N-[3-Fluoro-4-[(7-methoxy-1,5-naphthyridin-4-yl)oxy]phenyl]-5-(4-fluorophenyl)-4-hydroxy-6-(trifluoromethyl)pyridine-3-carboxamide] | < 100 | < 100 | > 300
COc1cnc2c(Oc3ccc(NC(=O)c4ccc(C)n(-c5ccc(F)cc5C)c4=O)cc3F)ccnc2c1 [Compound 220, N-[3-Fluoro-4-[(7-methoxy-1,5-naphthyridin-4-yl)oxy]phenyl]-1-(4-fluoro-2-methylphenyl)-6-methyl-2-oxopyridine-3-carboxamide] | < 100 | < 100 | < 100
COc1cnc2c(Oc3ccc(NC(=O)c4c(C)ncn(-c5ccc(F)cc5)c4=O)cc3F)ccnc2c1 [Compound 256, N-[3-Fluoro-4-[(7-methoxy-1,5-naphthyridin-4-yl)oxy]phenyl]-1-(4-fluorophenyl)-4-methyl-6-oxopyrimidine-5-carboxamide] | 100 to 300 | < 100 | 100 to 300
COc1cc2nccc(Oc3ccc(NC(=O)c4cn(C)c(C)c(-c5cccc(F)c5)c4=O)cc3F)c2nc1OC [Compound 37, N-[4-[(6,7-Dimethoxy-1,5-naphthyridin-4-yl)oxy]-3-fluorophenyl]-5-(3-fluorophenyl)-1,6-dimethyl-4-oxopyridine-3-carboxamide hydrochloride] | < 100 | < 100 | 100 to 300
